Laboratory results as given in patent publication US8686113B2 (priority 2009, dated 2014).
In brackets after ≈: the same amount, converted by molar mass. Like-named read-outs stand apart in the source and are kept apart here. Non-standard residues stand in square brackets, D forms with d. Residues, ends and D or L forms follow the SMILES beside them. No end group written: not given here. *: point of attachment. Hyp = O=C(O)[C@@H]1C[C@@H](O)CN1; hArg = N=C(N)NCCCC[C@H](N)C(=O)O; β3hR = N=C(N)NCCC[C@H](N)CC(=O)O; Orn = NCCC[C@H](N)C(=O)O; NHPr = CCCN*

Columns and labels:
[1] = mouse, serum, Half-life in 25% mouse serum, 25% aqueous mouse serum, 37° C., 75 μg/mL peptide
[2] = test system: E. coli BL21 A1; assay type: cell-based, Escherichia coli
Summary of the method: (§1)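 Broth microdilution in 1% TSB with twofold peptide series, final 128 μg/mL to 62.5 ng/mL, against 5×10^6 bacteria/mL stock suspension added 1:1. Incubated 20 h at 37 °C, growth read by absorbance at 595 nm; MIC is the lowest concentration with no growth, determined in triplicate.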

[3] = test system: E. coli D31 J. Wilson; conditions: ¼ Muller-Hinton medium
Experimental: (§2) The minimum inhibitory concentrations (MIC) of the antimicrobial peptides and peptide derivatives were determined in microdilution assays. These used a continuous peptide dilution in sterile flat-bottomed 96-well microtiter plates (polystyrene, Greiner Bio-One GmbH, Frickenhausen, Germany) and a total volume of 100 μL per well. The aqueous peptide or peptidomimetic solutions were diluted with 1% TSB water, to obtain a final concentration of 256 μg/mL. 50 μL of the peptide or peptidomimetic solution was pipetted into the first well of each series and stirred. From this solution, 50 μL was transferred to the second well, stirred and again 50 μL was transferred to the next well, and so on. A double dilution series is obtained, beginning at 256 μg/mL in the first well to 125 ng/mL in the twelfth well. The bacteria, e.g. E. coli BL21 A1, were cultured overnight at 37° C. in nutrient broth (NB, Carl Roth GmbH+Co. KG, Karlsruhe, Germany). 50 μL of a 5×10^6 bacteria/mL suspension in 1% TSB was added to each well of the microtiter plate and thus a final concentration of the peptides or peptidomimetics from 128 μg/mL (well 1) to 62.5 ng/mL (well 12) was established in each series. The plates were incubated at 37° C. for 20 h and then the absorption was measured at 595 nm with a TECAN microtiter plate spectrophotometer (Tecan Trading AG, Mannedorf, Switzerland). The MIC values of all peptides and peptidomimetics were determined in triplicate. Sterile water was used as negative control.
(§3) The tests were in this case carried out in Mueller-Hinton medium (¼ concentrated), which is equivalent to 1% TSB.

[4] = test system: K. pneumoniae 012-3131
Experimental: as §2, §3

[5] = test system: E. coli ATCC BAA-457; conditions: ¼ Muller-Hinton medium
Experimental: as §2, §3

[6] = test system: K. pneumoniae ATCC 27799
Experimental: as §2, §3

[7] = test system: E. coli 045-849 SENTRY; conditions: 045-849 SENTRY
Experimental: as §2, §3

[8] = test system: K. pneumoniae K6 ATCC 700603
Experimental: as §2, §3

[9] = test system: M. luteus 10240; experiment: Growth inhibition assay (microdilution MIC); assay type: cell-based, Micrococcus luteus; conditions: 10240, 20 h
Summary of the method: as §1

[10] = mouse, serum
Experimental: For this, the peptides and peptidomimetics were dissolved in water, mouse serum was added and the peptide concentration was adjusted to 75 μg/mL. While shaking continuously, the mixture was incubated at 37° C. After 0, 30, 60, 120, 240 and 360 minutes, in each case an aliquot was taken and mixed with 15% aqueous trichloroacetic acid (Carl Roth GmbH & Co. KG; Karlsruhe, Germany). After incubation on ice for a further 10 minutes, the precipitated serum proteins were centrifuged off (5 min, 13400 rpm, MiniSpin, Eppendorf AG, Hamburg, Germany). The supernatant was removed, neutralized with 1 mol/L aqueous sodium hydroxide solution (Fluke Chemie GmbH, Buchs, Switzerland) and stored at −20° C. until analysis.
The supernatants were analyzed by RP-HPLC with a linear acetonitrile gradient (Biosolve BV, Valkenswaard, The Netherlands) in the presence of 0.1% trifluoroacetic acid (TFA, UV-grade, Fluka Chemie GmbH, Buchs, Switzerland) as ion-pairing reagent. The fractions were co-crystallized with α-cyanohydroxycinnamic acid (Bruker Daltonik GmbH; Bremen, Germany) as matrix (5.3 mg/mL in 50% acetonitrile in 0.1% aqueous TFA) and were analyzed with a tandem mass spectrometer (MALDI-TOF/TOF-MS, 4700 Proteomics Analyzer; Applied Biosystems GmbH, Weiterstadt, Germany) in the positive-ion reflector mode. The proportion of intact peptides and their degradation products or metabolites could thus be identified and quantified at the individual time points. The control used was 25% aqueous mouse serum, which was analyzed in parallel for the same time intervals.

Molecule | half-life [1] [h] | MIC E. coli BL21 A1 ([2]; BL21, 20 h) [µg/mL] | MIC E. coli D31 J. Wilson [3] [µg/mL] | MIC K. pneumoniae 012-3131 [4] [µg/mL] | MIC E. coli SEQ 102ATCC # BAA-4 57 [5] [µg/mL] | MIC E. coli 045-849 SENTRY [7] [µg/mL] | MIC M. luteus 10240 [9] [µg/mL] | other results
CC[C@H](C)[C@H](NC(=O)C[C@H](CCCNC(=N)N)NC(=O)[C@H](CCCNC(=N)N)NC(=O)[C@@H]1CCCN1C(=O)[C@@H]1CCCN1C(=O)[C@H](CCCNC(=N)N)NC(=O)[C@@H]1CCCN1C(=O)[C@H](CCCNC(=N)N)NC(=O)[C@@H]1CCCN1C(=O)[C@H](CC(C)C)NC(=O)[C@H](Cc1ccc(O)cc1)NC(=O)[C@@H]1CCCN1C(=O)[C@@H]1CCCN1C(=O)[C@H](CCCCN)NC(=O)[C@H](CC(=O)O)NC(=O)[C@@H](N)C(C)C)C(=O)N[C@@H](Cc1ccc(O)cc1)C(=O)N[C@@H](CC(N)=O)C(=O)N[C@@H](CCCNC(=N)N)C(N)=O [SEQ ID NO. 62] (H-VDKPPYLPRPRPPR[β3hR]IYNR-NH2) | 2.5 | – | – | – | – | – | – | –
CCCNC(=O)[C@H](CCCNC(=N)N)NC(=O)[C@H](CC(N)=O)NC(=O)[C@H](Cc1ccc(O)cc1)NC(=O)[C@@H](NC(=O)[C@H](CCCN)NC(=O)[C@H](CCCNC(=N)N)NC(=O)[C@@H]1CCCN1C(=O)[C@@H]1CCCN1C(=O)[C@H](CCCNC(=N)N)NC(=O)[C@@H]1CCCN1C(=O)[C@H](CCCNC(=N)N)NC(=O)[C@@H]1CCCN1C(=O)[C@H](CC(C)C)NC(=O)[C@H](Cc1ccc(O)cc1)NC(=O)[C@@H]1CCCN1C(=O)[C@@H]1CCCN1C(=O)[C@H](CCCCN)NC(=O)[C@H](CC(=O)O)NC(=O)[C@@H](N)C(C)C)[C@@H](C)CC [SEQ ID NO. 71, VDKPPYLPRPRPPROIYNR-NHC3H7] (H-VDKPPYLPRPRPPR[Orn]IYNR-NHPr) | > 6 | 4 (≈ 1.67 µM) | – | – | – | – | – | –
CC[C@H](C)[C@H](NC(=O)[C@H](CCCNC(=N)N)NC(=O)[C@H](CCCNC(=N)N)NC(=O)[C@@H]1CCCN1C(=O)[C@@H]1CCCN1C(=O)[C@H](CCCNC(=N)N)NC(=O)[C@@H]1CCCN1C(=O)[C@H](CCCNC(=N)N)NC(=O)[C@@H]1C[C@@H](O)CN1C(=O)[C@H](CC(C)C)NC(=O)[C@H](Cc1ccc(O)cc1)NC(=O)[C@@H]1CCCN1C(=O)[C@@H]1CCCN1C(=O)[C@H](CCCCN)NC(=O)[C@H](CC(=O)O)NC(=O)[C@@H](N)C(C)C)C(=O)N[C@@H](Cc1ccc(O)cc1)C(=O)N[C@@H](CC(N)=O)C(=O)N[C@@H](CCCNC(=N)N)C(=O)O [compound 21] (H-VDKPPYL[Hyp]RPRPPRRIYNR-OH) | – | 16 (≈ 6.65 µM) | 32 (≈ 13.3 µM) | 32 (≈ 13.3 µM) | 64 (≈ 26.6 µM) | 16 (≈ 6.65 µM) | 16 (≈ 6.65 µM) | MIC K. pneumoniae ATCC 27799 ([6]; ATCC 27799): 128 µg/mL (≈ 53.2 µM); MIC K. pneumoniae K6 ATCC 700603 ([8]; ATCC 700603): 64 µg/mL (≈ 26.6 µM)
CC[C@H](C)[C@H](NC(=O)[C@H](CCCNC(=N)N)NC(=O)[C@H](CCCNC(=N)N)NC(=O)[C@@H]1CCCN1C(=O)[C@@H]1CCCN1C(=O)[C@H](CCCNC(=N)N)NC(=O)[C@@H]1CCCN1C(=O)[C@H](CCCNC(=N)N)NC(=O)[C@@H]1CCCN1C(=O)[C@H](CC(C)C)NC(=O)[C@H](Cc1ccc(O)cc1)NC(=O)[C@@H]1CCCN1C(=O)[C@@H]1C[C@@H](O)CN1C(=O)[C@H](CCCCN)NC(=O)[C@H](CC(=O)O)NC(=O)[C@@H](N)C(C)C)C(=O)N[C@@H](Cc1ccc(O)cc1)C(=O)N[C@@H](CC(N)=O)C(=O)N[C@@H](CCCNC(=N)N)C(=O)O [compound 23] (H-VDK[Hyp]PYLPRPRPPRRIYNR-OH) | – | 8 (≈ 3.32 µM) | 8 (≈ 3.32 µM) | 16 (≈ 6.65 µM) | 32 (≈ 13.3 µM) | 8 (≈ 3.32 µM) | 16 (≈ 6.65 µM) | MIC K. pneumoniae ATCC 27799 ([6]; ATCC 27799): 64 µg/mL (≈ 26.6 µM); MIC K. pneumoniae K6 ATCC 700603 ([8]; ATCC 700603): 32 µg/mL (≈ 13.3 µM)
CC[C@H](C)[C@H](NC(=O)[C@@H]1C[C@@H](O)CN1C(=O)[C@H](CCCNC(=N)N)NC(=O)[C@@H]1CCCN1C(=O)[C@@H]1CCCN1C(=O)[C@H](CCCNC(=N)N)NC(=O)[C@@H]1CCCN1C(=O)[C@H](CCCNC(=N)N)NC(=O)[C@@H]1CCCN1C(=O)[C@H](CC(C)C)NC(=O)[C@H](Cc1ccc(O)cc1)NC(=O)[C@@H]1CCCN1C(=O)[C@@H]1CCCN1C(=O)[C@H](CCCCN)NC(=O)[C@H](CC(=O)O)NC(=O)[C@@H](N)C(C)C)C(=O)N[C@@H](Cc1ccc(O)cc1)C(=O)N[C@@H](CC(N)=O)C(=O)N[C@@H](CCCNC(=N)N)C(N)=O [compound 25] (H-VDKPPYLPRPRPPR[Hyp]IYNR-NH2) | – | 16 (≈ 6.82 µM) | – | – | – | – | 8 (≈ 3.41 µM) | half-life [10]: 4 h
CC[C@H](C)[C@H](NC(=O)[C@H](CCCCNC(=N)N)NC(=O)[C@H](CCCNC(=N)N)NC(=O)[C@@H]1CCCN1C(=O)[C@@H]1CCCN1C(=O)[C@H](CCCNC(=N)N)NC(=O)[C@@H]1CCCN1C(=O)[C@H](CCCNC(=N)N)NC(=O)[C@@H]1CCCN1C(=O)[C@H](CC(C)C)NC(=O)[C@H](Cc1ccc(O)cc1)NC(=O)[C@@H]1CCCN1C(=O)[C@@H]1CCCN1C(=O)[C@H](CCCCN)NC(=O)[C@H](CC(=O)O)NC(=O)[C@@H](N)C(C)C)C(=O)N[C@@H](Cc1ccc(O)cc1)C(=O)N[C@@H](CC(N)=O)C(=O)N[C@@H](CCCCNC(=N)N)C(N)=O [compound 67] (H-VDKPPYLPRPRPPR[hArg]IYN[hArg]-NH2) | – | 4 (≈ 1.65 µM) | – | – | – | – | 4 (≈ 1.65 µM) | half-life [10]: 0.917 h
H-VDKPPYLPRPKPPRRIYNNR-OH [compound 5] | – | 16 | 64 | 64 | 128 | 16 | 16 | MIC K. pneumoniae ATCC 27799 ([6]; ¼ Muller-Hinton medium): 128 µg/mL; MIC K. pneumoniae K6 ATCC 700603 ([8]; ¼ Muller-Hinton medium): 128 µg/mL
H-VDKPPYLPRPRPPRPIYNR-OH [compound 20] | – | 8 | 4 | 64 | 32 | 8 | 16 | MIC K. pneumoniae ATCC 27799 ([6]; ATCC 27799): 64 µg/mL; MIC K. pneumoniae K6 ATCC 700603 ([8]; ATCC 700603): 128 µg/mL
H-VDKPPYLPRPRPPRRIYN-OH [SEQ ID NO. 28] | 2 | – | – | – | – | – | – | MIC E. coli BL21 A1 ([2]; 1% TSB, 20 h at 37° C.): 64 µg/mL
H-VDKPPYLPRPRPPRRIYNN-NH2 [compound 51] | 2 | 16 | – | – | – | – | 64 | –
H-VDKPPYLPRPRPPRRIYNRN-NH2 [compound 17] | 0.75 | 16 | – | – | – | – | 128 | –
H-VDKPPYLPRPRPPRRIYNRN-OH [compound 16] | – | 8 | 32 | 32 | 32 | 4 | 16 | MIC K. pneumoniae ATCC 27799 ([6]; ATCC 27799): 128 µg/mL; MIC K. pneumoniae K6 ATCC 700603 ([8]; ATCC 700603): 64 µg/mL
VDKPPYLPRPRPPRPIYNR-NH2 [SEQ ID NO. 60] | 2 | – | – | – | – | – | – | –
VDKPPYLPRPRPPRRIYNNR-OH [SEQ ID NO. 14] | < 0.5 | – | – | – | – | – | – | –
VDKPPYLPRPRPPRRIYNR-OH [SEQ ID NO. 19] | < 0.5 | – | – | – | – | – | – | –
